Reference: patent US9035059B2, “Nitrogen-containing condensed heterocyclic compound” (TAISHO PHARMACEUTICAL CO., LTD., priority 2011, dated 2015)

Target: human MGAT2 (Homo sapiens (Human), UniProt Q3SYC2)
Assay: Test Example 1: Test of MGAT2 inhibitory action (human MGAT2 enzyme fraction from Sf9 cells, free CoA detected by CPM fluorescence)
Assay type: biochemical
Details: human MGAT2 enzyme fraction expressed in Sf9 insect cells, 0.5 μg/ml, 2-monooleoyl glycerol 0.78 μM, oleoyl-CoA 5.3 μM, room temperature 20 min, listed as 10-4, read-out: Activity Value [nM] (IC50, concentration at which 50% of produced free CoA was inhibited)
Description: The MGAT2 inhibitory action of the inventive compound was measured by the methods described in Test Examples as shown below. The MGAT enzyme activity was measured based on the amount of an indicator, free Coenzyme A (CoA) which is generated by the reaction shown below, using a sulfhydryl reactive pigment (7-diethylamino-3-(4-maleimidophenyl)-4-methylcoumarin; hereinafter, sometimes abbreviated as CPM).
A test for MGAT2 inhibitory action of test compounds was conducted in accordance with a partially modified version of the method described in John F. Lockwood et al., Am. J. Physiol. Endocrinol. Metab., 2003, 285, E927.
Bac-to-Bac Baculovirus Expression System (Life Technologies Japan) was used to express human MGAT2 in insect cells (Sf9) (Life Technologies Japan). These cells were sonicated and centrifuged at 100,000 g×1 hr to give a precipitate. The precipitate was used as a human MGAT2 enzyme fraction in this assay.
This test was conducted using a black flat-bottom 96-well plate (Corning). A buffer solution with final concentrations of 5 mM magnesium chloride, 100 mM sucrose and 100 mM Tris-HCl (pH=7.5) was prepared and test compounds prepared in various concentrations using dimethyl sulfoxide were added thereto to give a final dimethyl sulfoxide concentration of 1%. The MGAT2 enzyme fraction was added thereto to give a final concentration of 0.5 μg/ml and phosphatidylcholine, 2-monooleoyl glycerol and oleoyl-CoA were added thereto to give final concentrations of 7.5 μM, 0.78 μM and 5.3 μM, respectively, before starting a reaction. The reaction was performed at room temperature for 20 min.
After 20 min, a CPM-containing solution was added thereto to give a final concentration of 5 μM before stopping the MGAT reaction. After 1 hr, a fluorescence detector (Infinite 200 from Tecan Japan) was used to measure the CPM fluorescence value of each well (excitation 380 nm, emission 460 nm).

human MGAT2, sequence (Q3SYC2 whole entry): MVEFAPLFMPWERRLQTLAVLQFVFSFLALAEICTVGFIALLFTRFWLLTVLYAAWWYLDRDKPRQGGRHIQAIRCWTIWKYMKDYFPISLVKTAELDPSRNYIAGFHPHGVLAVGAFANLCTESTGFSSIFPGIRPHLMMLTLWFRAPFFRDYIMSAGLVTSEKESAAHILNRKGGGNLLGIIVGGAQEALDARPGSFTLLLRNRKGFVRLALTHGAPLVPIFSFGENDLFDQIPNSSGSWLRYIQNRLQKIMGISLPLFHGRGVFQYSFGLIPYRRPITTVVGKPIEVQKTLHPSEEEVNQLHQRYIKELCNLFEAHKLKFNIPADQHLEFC

Question: How did the IC50 turn out when CCCCCCOc1ccc(NS(=O)(=O)c2ccc3c(c2)CCN(C(C)Cc2ccc(C(C)(C)C)cc2)C3)c(F)c1 (single isomer, unassigned) [Working Example 10-4] was run?
Answer: 39 nM

Same assay, conditions: human MGAT2 enzyme fraction expressed in Sf9 insect cells, 0.5 μg/ml, 2-monooleoyl glycerol 0.78 μM, oleoyl-CoA 5.3 μM, room temperature 20 min, listed as 10-10, read-out: Activity Value [nM] (IC50, concentration at which 50% of produced free CoA was inhibited)

Question: For CCCCCCCCOc1ccc(NS(=O)(=O)c2ccc3c(c2)CCN(C(C)Cc2ccc(C(C)(C)C)cc2)C3)c(F)c1 (stereo not shown) [Working Example 10-10], which IC50 is on record?
Answer: 97 nM

Same assay, conditions: human MGAT2 enzyme fraction expressed in Sf9 insect cells, 0.5 μg/ml, 2-monooleoyl glycerol 0.78 μM, oleoyl-CoA 5.3 μM, room temperature 20 min, listed as 10-11, read-out: Activity Value [nM] (IC50, concentration at which 50% of produced free CoA was inhibited)

Question: For CC(Cc1ccc(C(C)(C)C)cc1)N1CCc2cc(S(=O)(=O)Nc3ccc(OCCCCCc4ccccc4)cc3F)ccc2C1 (single isomer, unassigned) [Working Example 10-11], which IC50 is on record?
Answer: 80 nM

Same assay, conditions: human MGAT2 enzyme fraction expressed in Sf9 insect cells, 0.5 μg/ml, 2-monooleoyl glycerol 0.78 μM, oleoyl-CoA 5.3 μM, room temperature 20 min, listed as 10-12, read-out: Activity Value [nM] (IC50, concentration at which 50% of produced free CoA was inhibited)

Question: For CC(Cc1ccc(C(C)(C)C)cc1)N1CCc2cc(S(=O)(=O)Nc3ccc(OCCCCCc4ccccc4)cc3F)ccc2C1 (single isomer, unassigned) [Working Example 10-12], which IC50 is on record?
Answer: 42 nM

Same assay, conditions: human MGAT2 enzyme fraction expressed in Sf9 insect cells, 0.5 μg/ml, 2-monooleoyl glycerol 0.78 μM, oleoyl-CoA 5.3 μM, room temperature 20 min, read-out: Activity Value [nM] (IC50, concentration at which 50% of produced free CoA was inhibited)

Question: With CC(C)(C)c1cnc(CN2CCc3cc(S(=O)(=O)Nc4ccc(CCCC5CCCC5)cc4F)ccc3C2)cn1 [Working Example 7-60] as the compound, how does the IC50 read?
Answer: 233 nM

Question: How did the IC50 turn out when CC(C)(C)c1ccc(NC(=O)N2Cc3ccc(S(=O)(=O)Nc4ccc(OCCOc5ccc(F)cc5)cc4F)cc3C2)cc1 [18-19] was run?
Answer: 125 nM

Question: With CC(C)(C)c1ccc(CN2CCc3cc(S(=O)(=O)Nc4ccc(OCCCC5CCCCC5)cc4F)ccc3C2)cn1 [Working Example 6-35] as the compound, how does the IC50 read?
Answer: 65 nM

Question: CC(C)(C)c1ccc(NC(=O)N2Cc3ccc(S(=O)(=O)Nc4ccc(OCCOc5cccc(C(F)(F)F)c5)cc4F)cc3C2)cc1 [18-21] was tested. Which IC50 did it give?
Answer: 59 nM

Question: For CCCCCCCc1ccc(NS(=O)(=O)c2ccc3c(c2)CCN(Cc2ccc(C(C)(C)C)nc2)C3)c(F)c1 [Working Example 6-32], which IC50 is on record?
Answer: 31 nM

Question: For CCCCCCCCOc1ccc(NS(=O)(=O)c2ccc3c(c2)CN(C(=O)Nc2ccc(C(C)(C)C)cc2)C3)c(F)c1 [18-7], which IC50 is on record?
Answer: 7 nM

Question: How did the IC50 turn out when CCCCCCCc1ccc(NS(=O)(=O)c2ccc3c(c2)CCN(CCCCCC)C3)c(F)c1 [Working Example 7-35] was run?
Answer: 220 nM

Question: How did the IC50 turn out when CCCCCCCCOc1ccc(NS(=O)(=O)c2ccc3c(c2)CCN(CCc2ccc(C(C)(C)C)cc2)C3)c(F)c1 [17-2] was run?
Answer: 45 nM

Question: With CC(C)(C)c1ccc(NC(=O)N2Cc3ccc(S(=O)(=O)Nc4ccc(OCCCCc5ccccc5)cc4F)cc3C2)cc1 [19-2] as the compound, how does the IC50 read?
Answer: 30 nM

Question: How did the IC50 turn out when CC(C)(C)c1ccc(CCN2CCc3cc(S(=O)(=O)Nc4ccc(OCCCC5CCCCC5)cc4F)ccc3C2)cc1 [17-6] was run?
Answer: 39 nM

Question: Which IC50 does the source give for CC(C)(C)c1ccc(NC(=O)N2Cc3ccc(S(=O)(=O)Nc4ccc(OCCC5CCCC5)cc4F)cc3C2)cc1 [18-32] here?
Answer: 58 nM

Question: Which IC50 does the source give for CC(c1ccc(C(C)(C)C)cc1)N1CCc2cc(S(=O)(=O)Nc3ccc(OCCCc4ccccc4)cc3F)ccc2C1 (stereo not shown) [Working Example 11-3] here?
Answer: 116 nM

Question: How did the IC50 turn out when O=S(=O)(Nc1ccc(CCCC2CCCC2)cc1F)c1ccc2c(c1)CCN(Cc1ccc(OC(F)(F)C(F)F)cc1)C2 [Working Example 7-50] was run?
Answer: 273 nM

Question: With CC(C)(C)c1ccc(NC(=O)N2Cc3ccc(S(=O)(=O)Nc4ccc(OCCCc5ccccc5)cc4F)cc3C2)cc1 [18-15] as the compound, how does the IC50 read?
Answer: 56 nM

Question: With COc1ccc(NS(=O)(=O)c2ccc3c(c2)CN(C(=O)Nc2ccc(C(C)(C)C)cc2)C3)c(F)c1 [14-16] as the compound, how does the IC50 read?
Answer: 164 nM

Question: O=S(=O)(Nc1ccc(CCCC2CCCC2)cc1F)c1ccc2c(c1)CCN(Cc1cnc(C(F)(F)F)nc1)C2 [Working Example 6-78] was tested. Which IC50 did it give?
Answer: 228 nM

Question: C/C=C\CCCOc1ccc(NS(=O)(=O)c2ccc3c(c2)CN(C(=O)Nc2ccc(C(C)(C)C)cc2)C3)c(F)c1 [19-11] was tested. Which IC50 did it give?
Answer: 128 nM

Question: How did the IC50 turn out when CC(C)(C)c1ccc(NC(=O)N2CCc3cc(S(=O)(=O)Nc4ccc(OCCC5CCOCC5)cc4F)ccc3C2)cc1 [14-35] was run?
Answer: 178 nM

Question: With CCCCCOc1ccc(NS(=O)(=O)c2ccc3c(c2)CN(C(=O)Nc2ccc(C(C)(C)C)cc2)C3)c(F)c1 [14-18] as the compound, how does the IC50 read?
Answer: 147 nM

Question: With CC(C)(C)c1ccc(NC(=O)N2Cc3ccc(S(=O)(=O)Nc4ccc(OCCOc5ccccc5)cc4F)cc3C2)cc1 [18-18] as the compound, how does the IC50 read?
Answer: 136 nM

Question: How did the IC50 turn out when CC(C)(C)c1ccc(NC(=O)N2Cc3ccc(S(=O)(=O)Nc4ccc(OCCC5CC5)cc4F)cc3C2)cc1 [18-31] was run?
Answer: 266 nM

Question: For CC(C)(C)c1ccc(C(=O)N2CCc3cc(S(=O)(=O)Nc4ccc(CCCC5CCCC5)cc4F)ccc3C2)cc1 [Working Example 1-4], which IC50 is on record?
Answer: 211 nM

Question: O=S(=O)(Nc1ccc(CCCC2CCCC2)cc1F)c1ccc2c(c1)CCN(CCc1ccc(OC(F)(F)F)cc1)C2 [22-2] was tested. Which IC50 did it give?
Answer: 256 nM

Question: How did the IC50 turn out when CC(C)(C)c1ccc(NC(=O)N2Cc3ccc(S(=O)(=O)Nc4ccc(OCCCCOc5ccccc5)cc4F)cc3C2)cc1 [18-25] was run?
Answer: 33 nM

Question: With CC(C)(C)c1ccc(CN2CCc3cc(S(=O)(=O)Nc4ccc(OCCCc5ccccc5)cc4F)ccc3C2)cn1 [Working Example 6-26] as the compound, how does the IC50 read?
Answer: 218 nM

Question: CC(C)(C)c1ccc(CCN2CCc3cc(S(=O)(=O)Nc4ccc(CCCC5CCCC5)cc4F)ccc3C2)cn1 [Working Example 6-63] was tested. Which IC50 did it give?
Answer: 62 nM

Question: How did the IC50 turn out when COc1ccc(OCCOc2ccc(NS(=O)(=O)c3ccc4c(c3)CN(C(=O)Nc3ccc(C(C)(C)C)cc3)C4)c(F)c2)cc1 [18-22] was run?
Answer: 120 nM

Question: CC(C)(C)c1ccc(NC(=O)N2Cc3ccc(S(=O)(=O)Nc4ccc(OCCCCCc5ccccc5)cc4F)cc3C2)cc1 [18-16] was tested. Which IC50 did it give?
Answer: 10 nM

Question: With CCC(c1ccc(C(C)(C)C)cc1)N1CCc2cc(S(=O)(=O)Nc3ccc(OCCCc4ccccc4)cc3F)ccc2C1 (stereo not shown) [Working Example 11-4] as the compound, how does the IC50 read?
Answer: 235 nM

Question: Which IC50 does the source give for CC(C)(C)c1ccc(CN2CCc3cc(S(=O)(=O)Nc4ccc(CCCC5CCCC5)cc4F)ccc3C2)cn1 [Working Example 6-31] here?
Answer: 31 nM

Question: With CCCCCCCOc1ccc(NS(=O)(=O)c2ccc3c(c2)CCN(CCc2ccc(C(C)(C)C)cc2)C3)c(F)c1 [17-1, 2-[2-(4-tert-Butylphenyl)ethyl]-N-[2-fluoro-4-(heptyloxy)phenyl]-1,2,3,4-tetrahydroisoquinoline-6-sulfonamide] as the compound, how does the IC50 read?
Answer: 40 nM

Question: Which IC50 does the source give for CCCCCCOc1ccc(NS(=O)(=O)c2ccc3c(c2)CCN(CCc2ccc(C(C)(C)CO)cc2)C3)c(F)c1 [Working Example 6-30] here?
Answer: 214 nM

Question: Which IC50 does the source give for CC(c1ccc(C(C)(C)C)nc1)N1CCc2cc(S(=O)(=O)Nc3ccc(OCCCCCc4ccccc4)cc3F)ccc2C1 (stereo not shown) [23-2] here?
Answer: 14 nM

Question: How did the IC50 turn out when CC(C)(C)c1ccc(CCN2CCc3cc(S(=O)(=O)Nc4ccc(OCCCc5ccccc5)cc4F)ccc3C2)cc1 [Working Example 8-2] was run?
Answer: 173 nM

Question: Which IC50 does the source give for O=C(NC1CCCCC1)N1CCc2cc(S(=O)(=O)Nc3ccc(CCCC4CCCC4)cc3F)ccc2C1 [14-36] here?
Answer: 69 nM

Question: Which IC50 does the source give for O=S(=O)(Nc1ccc(CCCC2CCCC2)cc1F)c1ccc2c(c1)CCN(CCCC(F)(F)F)C2 [Working Example 7-54] here?
Answer: 162 nM

Question: For CC(C)(C)c1ccc(NC(=O)N2Cc3ccc(S(=O)(=O)Nc4ccc(OCCCOc5cccc(Cl)c5)cc4F)cc3C2)cc1 [18-24], which IC50 is on record?
Answer: 62 nM

Question: With CCCCCCOc1ccc(NS(=O)(=O)c2ccc3c(c2)CCN(C(=O)Nc2ccc(C(C)(C)C)cc2)C3)c(F)c1 [14-4] as the compound, how does the IC50 read?
Answer: 98 nM

Question: For CC(C)(C)c1ncc(CN2CCc3cc(S(=O)(=O)Nc4ccc(CCCC5CCCC5)cc4F)ccc3C2)s1 [Working Example 6-48], which IC50 is on record?
Answer: 49 nM

Question: With C/C=C\CCCCCOc1ccc(NS(=O)(=O)c2ccc3c(c2)CN(C(=O)Nc2ccc(C(C)(C)C)cc2)C3)c(F)c1 [19-4] as the compound, how does the IC50 read?
Answer: 2 nM

Question: For CCCCCCCc1ccc(NS(=O)(=O)c2ccc3c(c2)CCN(CCc2ccc(C(C)(C)C)cc2)C3)c(F)c1 [Working Example 6-18], which IC50 is on record?
Answer: 35 nM

Question: With CC(C)CCCOc1ccc(NS(=O)(=O)c2ccc3c(c2)CN(C(=O)Nc2ccc(C(C)(C)C)cc2)C3)c(F)c1 [19-7] as the compound, how does the IC50 read?
Answer: 99 nM

Question: How did the IC50 turn out when CCCCCCOc1ccc(NS(=O)(=O)c2ccc3c(c2)CCN(CCc2ncc(C(C)(C)C)cn2)C3)c(F)c1 [Working Example 9-21] was run?
Answer: 164 nM

Question: How did the IC50 turn out when CC(C)(C)c1ccc(CCN2CCc3cc(S(=O)(=O)Nc4ccc(OCCC5CCCCC5)cc4F)ccc3C2)cc1 [Working Example 5-1, 2-[2-(4-tert-Butylphenyl)ethyl]-N-[4-(2-cyclohexylethoxy)-2-fluorophenyl]-1,2,3,4-tetrahydroisoquinoline-6-sulfonamide] was run?
Answer: 76 nM

Question: CCCCCCCc1ccc(NS(=O)(=O)c2ccc3c(c2)CCN(Cc2cnc(C(C)(C)C)s2)C3)c(F)c1 [Working Example 7-32] was tested. Which IC50 did it give?
Answer: 42 nM
